Earlier results as cited in patent US20220054380A1, “CANN[…] ESTERS FOR COSMETIC OR EDIBLE COMPOSITIONS” (EPM (IP), Inc., priority 2018, published 2022).

Legend:
rats [1] = details: compared with CBDA, 5-HT1A receptor-dependent
rats [2] = details: compared with CBDA, 5-HT1A receptor-dependent; remark: listed apart in the source
rats [3] = details: oral ingestion, low dose (1 mg/kg), two rat models

For `C=C(C)C1CCC(C)=C[C@H]1c1c(O)cc(CCCCC)c(C(=O)OC)c1O` (stereo partly drawn) [HU-580, Cannabidiolic Acid Methyl Ester], the “potency at suppressing signs of acute and anticipatory nausea” value (rats [1]) is given as “greater potency than CBDA”, the “potency at suppressing signs of stress-induced anxiety” value (rats [2]) is given as “greater potency than CBDA” and the anti-depressant effect (rats [3]) is given as “potent anti-depressant effect”.
